Data taken from patent publication US20240415828A1, “TLR7 AGONIST AND COMBINATIONS FOR CANCER TREATMENT” (BIONTECH SE, priority 2021, published 2024).

Key:
[1] = tested on: Human whole blood; assay: Cytokine release in human whole blood treated in vitro (CBA); assay type: cell-based
Method: FIG. 7. Release of certain cytokines upon treatment of whole blood from human donors with BNT411 at various concentrations. Whole blood drawn from healthy human volunteers was treated in vitro with BNT411 to investigate the induction of the following cytokines/chemokines: IFNα, IP-10, IL-6, and TNFα. BNT411 concentrations ranging from 0.1 nM (1×) to 7.5 μM (75000×). The fold increase to baseline is shown for each cytokine and BNT411 concentration tested.
After performing a serial dilution of the test compounds (such as BNT411), 5 μL of each sample is transferred/pipetted to single wells of a 96-well-plate. As negative control, plasma which has been prepared from whole blood of each donor is used. Subsequently, 245 μL of RPMI-medium is added to each well, leading to a 1:50 dilution of each sample, named spiking solutions. The heparinized whole blood is pipetted to separate 96-well-plate. After seeding whole blood, the prepared spiking solutions are added: 190 μL of whole blood is seeded in each well and 10 μL of spiking solutions is added to get a final volume of 200 μL per well and additional 1:20 dilution of all samples. Finally, the plates are incubated at 37° C. and 5% CO2. After 24 h incubation the plates are centrifuged at 500×g for 5 min. The plasma of all samples is harvested, transferred to a new 96-well-plate and frozen at −15° C. to −25° C. until performing the CBA, but at least 3 h.
The CBA is performed with the frozen/thawed plasma samples according to the manufacturer's instructions for ProCarta multiplex kits. For evaluation of cytokine concentrations, assay duplicates of all samples are measured by using the luminex system. After checking standard curves with the instrument control system (Bio-Plex Manager 4.1.1) the raw data are transferred to excel. Graphical analysis is performed with GraphPad Prism 6.
Human whole blood was obtained from healthy donors and treated in vitro with BNT411 (concentration range: 0.1 nM to […]). 24 h after stimulation secretion of several cytokines, including IFNα, IP-10, IL-6, and TNFα, was analyzed by a multiplexed CBA.

[2] = tested on: solid tumor; assay: Clinical trial Part 1A, BNT411 monotherapy dose escalation; assay type: in vivo, human
Method: FIG. 8. Release of certain cytokines from preparations obtained from whole blood of human patients treated with BNT411 at various dose levels. Mean maximum fold change (+SD) calculated from the highest cytokine value observed on day 1 in treatment cycle 1 relative to baseline. IFNα and IL-6 peaked 4 to 8 hours after treatment, IP-10 and TNFa peaked 2.5 to 8 hours after treatment.
To this end, a trial was designed to assess the safety profile of BNT411 in monotherapy and in combination with atezolizumab, etoposide, and carboplatin (atezo/EC) and to determine the maximum tolerated dose/recommended phase 2 dose (MTD/RP2D). This trial comprised two parts (1A and 1B) with dose escalation, wherein the patients of part 1A received BNT411 monotherapy and patients of part 1B received BNT411 together with atezolizumab, etoposide, and carboplatin. The patients had solid tumor (preferably ES-SCLC for part 1B) and received the drugs according to the following dosing schedule (until disease progression, unacceptable toxicity, or death): • Part 1A: 3-week cycles, BNT411 i.v. Q1W for 4 cycles, then Q3W • Part 1B: 3-week cycles, BNT411 i.v. Q1W for 4 cycles, then Q3W; atezo/EC Q3W
DL1-DL3 of Part 1A were single-patient cohorts, all other dose levels were 3+3 cohorts.
Efficacy was assessed by CT/MRI imaging according to RECIST 1.1 and iRECIST every 6 weeks for 48 weeks, and every 12 weeks thereafter. Safety was assessed by physical examination, vital signs, electrocardiogram, clinical laboratory assessments, eye examinations, ECOG, pregnancy testing, and ECHO/MUGA. Biomarker assessments included tumor biopsies and blood sampling for cytokine analysis, immune phenotyping, tumor mutational burden, and TCR profiling.
As of Aug. 26, 2021, the patients were located in seven trial centers (UK, USA, Spain, Germany). Twenty-five patients were screened (Part 1A: 22; Part 1B: 3) with seven screen failures (all Part 1A). Eighteen patients enrolled (Part 1A: 15; Part 1B: 3), wherein fifteen patients were evaluable (Part 1A: 12; Part 1B: 3). Two Part 1A patients were replaced (at DL1 due to incorrect dosing and at DL5 due to PD before DLT evaluation completed). One Part 1A patient dropped out of trial before receiving treatment.
The trial population consists of histologically confirmed solid tumor patients with metastatic or unresectable disease for which there is no available standard therapy likely to confer clinical benefit, or patients who are not candidates for such available therapy.

[3] = Part 1A, patients (%), as of Aug. 26, 2021
[4] = Part 1A, patients, as of Aug. 26, 2021

COCCc1nc2c(N)nc3ccccc3c2n1CCCCN(C(C)=O)C1CCOCC1 [BNT411]
concentrations required for inducing secretion of pyrogenic proinflammatory cytokines (e.g., TNFα) relative to IFNα ([1]; FIG. 7): up to two orders of magnitude higher
IFNα secretion induced at fold lower concentrations than needed for induction of IL-6, TNFα, and IL-10 ([1]; human whole blood, 24 h): 5- to 25 fold
concentration at which IL-6, TNFa and IL-10 start to be induced ([1]; human whole blood, 24 h): about 0.06 μM
concentration at which significant IFNα release was induced ([1]; human whole blood, 24 h): 0.012 µM
concentration for maximal induction of IFNα, fold lower than for maximal induction of IL-6, TNFα, and IL-10 ([1]; human whole blood, 24 h): 25- to 100 fold
cytokine changes ([2]; DL1A, DL2A, or DL3A (0.05-0.45 μg/kg)): No meaningful cytokine changes
induction of IFN-a and IP-10 ([2]; DL5 onwards, substantially starting at DL6, data update October 2022): increased
IL-6 induction ([2]; DL6A): some increase
IP-10 level relative to assay range ([2]; DL6A): upper limit of detection of the assay was reached
induction of IFNa, IP-10, and other mode-of-action relevant cytokines ([2]; DL6A (4.8 μg/kg)): substantial induction
tumor response (RECIST 1.1), third patient ([2]; DL7, trial Day 251, still on treatment): partial response
dose limiting toxicity (DLT), or related grade 4-5 AEs ([2]; Part 1A): no
TEAEs related to BNT411 monotherapy: Anaemia, Grade 4 [2, 3]: 2 (13%)
TEAEs related to BNT411 monotherapy: Blood bilirubin increased, Grade 4 [2, 3]: 1 (7%)
TEAEs related to BNT411 monotherapy: Chills, Grade 4 [2, 3]: 2 (13%)
TEAEs related to BNT411 monotherapy: Diarrhoea, Grade 4 [2, 3]: 1 (7%)
TEAEs related to BNT411 monotherapy: Fatigue, Grade 4 [2, 3]: 1 (7%)
TEAEs related to BNT411 monotherapy: Headache, Grade 4 [2, 3]: 1 (7%)
TEAEs related to BNT411 monotherapy: Hyperbilirubinaemia, Grade 4 [2, 3]: 1 (7%)
TEAEs related to BNT411 monotherapy: Hypotension, Grade 4 [2, 3]: 1 (7%)
TEAEs related to BNT411 monotherapy: Illness, Grade 4 [2, 3]: 1 (7%)
TEAEs related to BNT411 monotherapy: Infusion related reaction, Grade 4 [2, 3]: 1 (7%)
TEAEs related to BNT411 monotherapy: Nausea, Grade 4 [2, 3]: 1 (7%)
TEAEs related to BNT411 monotherapy: Neutropenia, Grade 4 [2, 3]: 1 (7%)
TEAEs related to BNT411 monotherapy: Pruritus, Grade 4 [2, 3]: 1 (7%)
TEAEs related to BNT411 monotherapy: Pyrexia, Grade 4 [2, 3]: 3 (20%)
TEAEs related to BNT411 monotherapy: Total number of patients with TEAEs, Grade 4 [2, 3]: 7 (47%)
TEAEs related to BNT411 monotherapy: Anaemia, Grade 1 [2, 4]: 1
TEAEs related to BNT411 monotherapy: Anaemia, Grade 3 [2, 4]: 1
TEAEs related to BNT411 monotherapy: Blood bilirubin increased, Grade 1 [2, 4]: 1
TEAEs related to BNT411 monotherapy: Chills, Grade 1 [2, 4]: 2
TEAEs related to BNT411 monotherapy: Diarrhoea, Grade 2 [2, 4]: 1
TEAEs related to BNT411 monotherapy: Fatigue, Grade 2 [2, 4]: 1
TEAEs related to BNT411 monotherapy: Headache, Grade 1 [2, 4]: 1
TEAEs related to BNT411 monotherapy: Hyperbilirubinaemia, Grade 1 [2, 4]: 1
TEAEs related to BNT411 monotherapy: Hypotension, Grade 1 [2, 4]: 1
TEAEs related to BNT411 monotherapy: Illness, Grade 1 [2, 4]: 1
TEAEs related to BNT411 monotherapy: Infusion related reaction, Grade 2 [2, 4]: 1
TEAEs related to BNT411 monotherapy: Nausea, Grade 1 [2, 4]: 1
TEAEs related to BNT411 monotherapy: Neutropenia, Grade 1 [2, 4]: 1
TEAEs related to BNT411 monotherapy: Pruritus, Grade 1 [2, 4]: 1
TEAEs related to BNT411 monotherapy: Pyrexia, Grade 1 [2, 4]: 1
TEAEs related to BNT411 monotherapy: Pyrexia, Grade 2 [2, 4]: 2
safety profile ([2]; all doses tested as of Aug. 26, 2021 (up to DL6)): acceptable safety profile
time of IFNa and IL-6 peak after treatment ([2]; day 1, treatment cycle 1): 4 to 8 h
time of IP-10 and TNFa peak after treatment ([2]; day 1, treatment cycle 1): 2.5 to 8 h
AEs related to BNT411 monotherapy: chills, share of patients ([2]; grade 1, Part 1A DL1 and DL6): 13%
AEs related to BNT411 monotherapy: pyrexia, share of patients ([2]; grades 1 and 2, Part 1A DLs 1*, 2, and 6): 20%
AEs related to BNT411 monotherapy: anaemia, share of patients ([2]; grades 1 and 3, Part 1A DL4 and DL5): 13%
tumor response (RECIST 1.1), second patient ([2]; intermediate dose level between DL6 and DL7, as of Day 420): stable disease
change in sum of target lesion diameters compared with baseline, second patient ([2]; intermediate dose level between DL6 and DL7, trial Day 86): −26.2%
cytokine release ([2]; ten patients, DL4A, DL5A, DL6A): dose-dependent cytokine release
serious adverse events with a possible causal relationship to BNT411 monotherapy ([2]; two cases of infusion-related reaction, grades 1 and 2, same patient, Part 1A DL6): Two
tumor response (RECIST 1.1), patient started at DL4, increased to DL5 (C8D1) and DL6 (C12D1) ([2]; until trial Day 449, cutoff Oct. 13, 2022): stable disease
overall safety profile ([2]; up to DL6, data update October 2022): acceptable overall safety profile
TNFa induction levels ([2]; up to DL6A): remained unchanged
